Measured values published in PubChem BioAssay (NCI).
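How tested: cells in 96-well plates exposed to compound for 48 hours at five concentrations. The concentration for 50% growth inhibition is given as GI50. At the TGI there is no net growth.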

What was measured:
Assay in all cases: NCI tumour cell line growth inhibition, 48 h
SW-620 colon = test system: SW-620 colon
OVCAR-8 ovarian = test system: OVCAR-8 ovarian
SK-MEL-28 melanoma = test system: SK-MEL-28 melanoma
OVCAR-3 ovarian = test system: OVCAR-3 ovarian
MDA-MB-435 = test system: MDA-MB-435
RXF 393 renal = test system: RXF 393 renal
SNB-19 CNS = test system: SNB-19 CNS
K-562 leukemia = test system: K-562 leukemia
TK-10 renal = test system: TK-10 renal
HL-60(TB) leukemia = test system: HL-60(TB) leukemia
ACHN renal = test system: ACHN renal
NCI-H522 lung = test system: NCI-H522 lung
NCI-H460 lung = test system: NCI-H460 lung
SF-539 CNS = test system: SF-539 CNS
MCF7 breast = test system: MCF7 breast
HCT-15 colon = test system: HCT-15 colon
CCRF-CEM leukemia = test system: CCRF-CEM leukemia
COLO 205 colon = test system: COLO 205 colon
OVCAR-4 ovarian = test system: OVCAR-4 ovarian
MDA-MB-468 breast = test system: MDA-MB-468 breast
CAKI-1 renal = test system: CAKI-1 renal
M14 melanoma = test system: M14 melanoma
MOLT-4 leukemia = test system: MOLT-4 leukemia
NCI-H23 lung = test system: NCI-H23 lung
SNB-75 CNS = test system: SNB-75 CNS
HCT-116 colon = test system: HCT-116 colon
HOP-92 NSCLC = test system: HOP-92 NSCLC
PC-3 prostate = test system: PC-3 prostate
HS 578T breast = test system: HS 578T breast

## O=C(Nc1cccc(-n2cnc3cc(-c4ccc(O)cc4)ccc32)c1)C1CC1
SW-620 colon
  GI50: 421 nM
  TGI: > 91500 nM
OVCAR-8 ovarian
  GI50: 823 nM
  TGI: > 58800 nM
SK-MEL-28 melanoma
  GI50: 12600 nM
  TGI: 48500 nM
OVCAR-3 ovarian
  GI50: 320 nM
  TGI: 3760 nM
MDA-MB-435
  GI50: 108 nM
  TGI: 441 nM
RXF 393 renal
  GI50: 411 nM
  TGI: 6600 nM
SNB-19 CNS
  GI50: 811 nM
  TGI: 72900 nM
K-562 leukemia
  GI50: 284 nM
  TGI: > 36600 nM
TK-10 renal
  GI50: 11300 nM
  TGI: 63400 nM
HL-60(TB) leukemia
  GI50: 237 nM
  TGI: 645 nM
ACHN renal
  GI50: 593 nM
  TGI: 35200 nM
NCI-H522 lung
  GI50: 225 nM
  TGI: 1140 nM
NCI-H460 lung
  GI50: 469 nM
  TGI: > 43700 nM
SF-539 CNS
  GI50: 332 nM
  TGI: 2030 nM
MCF7 breast
  GI50: 358 nM
  TGI: 20200 nM
HCT-15 colon
  GI50: 308 nM
  TGI: 15700 nM
CCRF-CEM leukemia
  GI50: 389 nM
  TGI: 10300 nM
COLO 205 colon
  GI50: 489 nM
  TGI: 18600 nM
OVCAR-4 ovarian
  GI50: 5940 nM
  TGI: 73900 nM
MDA-MB-468 breast
  GI50: 313 nM
  TGI: 8820 nM
CAKI-1 renal
  GI50: 503 nM
  TGI: 66500 nM
M14 melanoma
  GI50: 344 nM
  TGI: 28300 nM
MOLT-4 leukemia
  GI50: 435 nM
  TGI: 6190 nM
NCI-H23 lung
  GI50: 1120 nM
  TGI: 19800 nM
SNB-75 CNS
  GI50: 246 nM
  TGI: 3420 nM
HCT-116 colon
  GI50: 512 nM
  TGI: 17700 nM
HOP-92 NSCLC
  GI50: 14600 nM
  TGI: 52100 nM
PC-3 prostate
  GI50: 546 nM
  TGI: 53200 nM
HS 578T breast
  GI50: 388 nM
  TGI: > 45400 nM
